Data taken from patent US20210253557A1, “SUBSTITUTED TRIAZOLE DERIVATIVES AND USES THEREOF” (Bayer Pharma Aktiengesellschaft, priority 2017, published 2021).

How the values were obtained:
human V1a receptor = target: T1, human V1a receptor (Homo sapiens, UniProt P37288); assay: Cellular in vitro assay for determining vasopressin receptor activity (V1a, aequorin luminescence); format: cell-based; settings: for IC50: CHO cell line transfected with the human V1a receptor, [Arg8]-vasopressin at EC50 concentration, read-out: IC50 hV1a; for ratio IC50 hV2/hV1a: selectivity ratio of IC50 hV2 to IC50 hV1a
T1 construct: expressed in transfected cells; host or cells: CHO K1 (ATCC), also stably transfected with a modified aequorin

human V2 receptor = target: T2, human V2 receptor (Homo sapiens, UniProt P30518); assay: Cellular in vitro assay for determining vasopressin receptor activity (V2, CRE-luciferase); format: cell-based; settings: CHO cell line transfected with the human V2 receptor; [Arg8]-vasopressin at EC50 concentration; read-out: IC50 hV2
T2 construct: expressed in transfected cells; host or cells: CHO K1 (ATCC) expressing firefly luciferase under a CRE-responsive promoter
Outline: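 Antagonism was measured as inhibition of a 3-h, EC50-level [Arg8]-vasopressin stimulation, with compounds tested at several concentrations, yielding IC50 values. The read-out was cAMP-driven CRE-luciferase luminescence after lysis, in recombinant CHO K1 cells carrying human V2 receptor. Cells were seeded in 2% FCS DMEM/F12 one day earlier.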

T1 sequence (P37288 whole entry): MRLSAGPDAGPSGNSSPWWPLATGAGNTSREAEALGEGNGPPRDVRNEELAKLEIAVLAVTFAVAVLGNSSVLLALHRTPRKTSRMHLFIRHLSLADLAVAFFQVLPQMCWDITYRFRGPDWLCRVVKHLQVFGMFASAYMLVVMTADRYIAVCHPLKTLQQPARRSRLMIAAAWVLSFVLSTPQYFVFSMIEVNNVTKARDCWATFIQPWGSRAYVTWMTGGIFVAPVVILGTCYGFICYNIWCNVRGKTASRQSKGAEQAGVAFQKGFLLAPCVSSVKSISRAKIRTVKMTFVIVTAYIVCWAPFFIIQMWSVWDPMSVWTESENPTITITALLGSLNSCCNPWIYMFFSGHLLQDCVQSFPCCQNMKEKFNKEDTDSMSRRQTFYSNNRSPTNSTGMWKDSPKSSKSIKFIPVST
T2 sequence (P30518 whole entry): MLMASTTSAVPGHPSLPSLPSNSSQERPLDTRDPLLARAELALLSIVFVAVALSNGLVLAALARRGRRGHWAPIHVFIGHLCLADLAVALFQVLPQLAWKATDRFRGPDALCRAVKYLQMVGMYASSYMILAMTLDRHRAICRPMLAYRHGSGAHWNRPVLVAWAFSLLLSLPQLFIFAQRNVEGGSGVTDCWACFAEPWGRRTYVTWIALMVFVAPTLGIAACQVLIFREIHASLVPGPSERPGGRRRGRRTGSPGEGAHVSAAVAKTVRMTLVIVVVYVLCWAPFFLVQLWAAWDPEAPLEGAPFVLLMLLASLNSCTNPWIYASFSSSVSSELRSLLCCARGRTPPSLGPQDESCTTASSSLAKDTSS

| IC50 (human V1a receptor) | ratio IC50 hV2/hV1a (human V1a receptor) | IC50 (human V2 receptor) | SMILES |
| --- | --- | --- | --- |
| 1.56 nM | 5.5 | 8.6 nM | CC(NC(=O)C(F)(F)F)c1nc(Cn2nc(-c3ccc(Cl)cc3)n(C[C@H](O)C(F)(F)F)c2=O)nn1-c1ccccc1Cl (mixture of isomers) [Example 73, N-{1-[1-(2-Chlorophenyl)-3-({3-(4-chlorophenyl)-5-oxo-4-[(2S)-3,3,3-trifluoro-2-hydroxypropyl]-4,5-dihydro-1H-1,2,4-triazol-1-yl}methyl)-1H-1,2,4-triazol-5-yl]ethyl}-2,2,2-trifluoroacetamide] |
| 17 nM | 22.7 | 385 nM | O=C1NC(c2nc(Cn3nc(-c4ccc(Cl)cc4)n(C[C@H](O)C(F)(F)F)c3=O)nn2-c2ncccc2OC(F)(F)F)CO1 (single isomer, unassigned) [Example 118] |
| 2.1 nM | 8.6 | 18 nM | O=C(NC(CO)c1nc(Cn2nc(-c3ccc(Cl)cc3)n(C[C@H](O)C(F)(F)F)c2=O)nn1-c1ccccc1Cl)C(F)(F)F (mixture of isomers) [Example 95, N-{1-[1-(2-Chlorophenyl)-3-({3-(4-chlorophenyl)-5-oxo-4-[(2S)-3,3,3-trifluoro-2-hydroxypropyl]-4,5-dihydro-1H-1,2,4-triazol-1-yl}methyl)-1H-1,2,4-triazol-5-yl]-2-hydroxyethyl}-2,2,2-trifluoroacetamide] |
| 3.1 nM | 56.4 | 175 nM | CN1C(=O)CC[C@@H]1c1nc(Cn2nc(-c3ccc(Cl)cc3)n(C[C@H](O)C(F)(F)F)c2=O)nn1-c1ncccc1Cl (single isomer, unassigned) [Example 104] |

Continued, molecule first:

| SMILES | IC50 (human V1a receptor) | ratio IC50 hV2/hV1a (human V1a receptor) | IC50 (human V2 receptor) |
| --- | --- | --- | --- |
| CC(=O)NC(COC(C)(C)C)c1nc(Cn2nc(-c3ccc(Cl)cc3)n(C[C@H](O)C(F)(F)F)c2=O)nn1-c1ccccc1Cl (single isomer, unassigned) [Example 89] | 3.45 nM | 37.4 | 129 nM |
| C[C@@H](OC(N)=O)c1nc(Cn2nc(-c3ccc(Cl)cc3)n(C[C@H](O)C(F)(F)F)c2=O)nn1-c1cccc(Cl)c1 [Example 36, (1R)-1-[1-(3-Chlorophenyl)-3-({3-(4-chlorophenyl)-5-oxo-4-[(2S)-3,3,3-trifluoro-2-hydroxypropyl]-4,5-dihydro-1H-1,2,4-triazol-1-yl}methyl)-1H-1,2,4-triazol-5-yl]ethyl Carbamate] | 28.6 nM | 0.1 | 1.81 nM |
| CC(N)c1nc(Cn2nc(-c3ccc(Cl)cc3)n(C[C@H](O)C(F)(F)F)c2=O)nn1-c1ccccc1Cl (single isomer, unassigned) [Example 62] | 0.97 nM | 11.7 | 11.4 nM |
| CC(=O)NC(COC(C)(C)C)c1nc(Cn2nc(-c3ccc(Cl)cc3)n(C[C@H](O)C(F)(F)F)c2=O)nn1-c1ccccc1Cl (mixture of isomers) [Example 88, N-{2-tert-Butoxy-1-[1-(2-chlorophenyl)-3-({3-(4-chlorophenyl)-5-oxo-4-[(2S)-3,3,3-trifluoro-2-hydroxypropyl]-4,5-dihydro-1H-1,2,4-triazol-1-yl}methyl)-1H-1,2,4-triazol-5-yl]ethyl}acetamide] | 1.5 nM | 30.3 | 45.5 nM |
| C[C@H](OC(N)=O)c1nc(Cn2nc(-c3ccc(Cl)cc3)n(C[C@H](O)C(F)(F)F)c2=O)nn1-c1cnccc1Cl [Example 21, (1S)-1-[3-({3-(4-Chlorophenyl)-5-oxo-4-[(2S)-3,3,3-trifluoro-2-hydroxypropyl]-4,5-dihydro-1H-1,2,4-triazol-1-yl}methyl)-1-(4-chloropyridin-3-yl)-1H-1,2,4-triazol-5-yl]ethyl Carbamate] | 1.9 nM | 9.2 | 17.5 nM |
| CC(N)c1nc(Cn2nc(-c3ccc(Cl)cc3)n(C[C@H](O)C(F)(F)F)c2=O)nn1-c1cccc(F)c1 (single isomer, unassigned) [Example 54] | 3.09 nM | 1.4 | 4.2 nM |
